This note sets out measurements from patent publication US9796730B2, “Halogenated benzoxazines and their use” (priority 2012, dated 2017).

The test system of data set [1] is Aβ plaques. As to the kind of experiment: Detection of Aβ plaques by means of MRT and optical fluorescence measurements in the mice model. Particulars: age 28 months, 2 mg/kg body weight. In kind it is in vivo, transgenic APP23 mice and non-transgenic control mice. The text has this: Detection of Aβ Plaques by Means of MRT in the Mice Model
For the MRT measurements a threedimensional gradient echosequence (gre3D) which both comprises T1 as well as T2* parts, and a quantitative T2 value determination sequence (T2map) were used.
The observations made in vivo could also be confirmed ex vivo after a preparation of the brains.

In data set [2] the test system is Aβ plaques. The experiment in a line: Detection of Aβ plaques by means of optical imaging (OI) in the mouse model. In kind it is in vivo, transgenic APPPS1 mice and non-transgenic control mice. Here is the method: Detection of Aβ Plaques by Means of Optical Imaging (OI) in the Mouse Model
The compound was formulated in physiological saline solution (0.9% NaCl) in a concentration of 0.05 mg/ml and intravenously injected into the mice. In the following the mice were examined by means of OI (Aequoria Hamamatsu Optical Imaging System), the signal was detected at 650 nm.
It is clear for the skilled person that this labeling can—depending on the kind of labeling—be realized by any method, such as OI, PET (e.g. with ^76Br, ^75Br or ^18F labeled compounds) or MRT (e.g. with ^19F labeled compounds).
The signal strength was quantified as a relative fluorescence signal, whereby 30 min after the injection was chosen as the reference point in time. The signal strength was calculated by percentage after the subtraction of the auto fluorescence (resulting in relative intensity values, Irel) and then the percentage difference between the transgenic and control mice—in the following referred to as specific binding (Bsp)—was calculated and plotted against the age of the transgenic mice (see FIG. 3). It turned out that there is a significant correlation between the age and the development of the Alzheimer's disease and the signal strength, where it was especially noted that the compound according to the invention has no saturation or ceiling effects in a way that the signal strength is not increasing at a specific concentration of Aβ plaques. To the contrary, at the age of 21 months for the transgenic mice a particularly strong signal has been measured.

The nature of data set [3]: Storage stability of the isolated title compound. It counts as physicochemical. As to conditions: within 12 hours at −25° C. Here is the method: The title compound is instable and decomposes within 12 hours to 50% at −25° C. For this reason the title compound is further converted directly after the isolation.

Each structure is given as a SMILES string.

Regarding `CCN1CCOc2cc3c(cc21)Oc1cc2c(cc1=N3)OCC[N+]=2CC[19F]` [Example 1, 8-Ethyl-4-(2-fluoroethyl)-3,8,9,10-tetrahydro-2H-bis([1,4]oxazino)[2,3-b:3′,2′-i]phenoxazin-4-ium chloride], the “enrichment in control mice (MRT and fluorescence)” value with Aβ plaques [1] (non-transgenic control mice) is “neither for the MRT measurements nor the fluorescence measurements a specific enrichment”. Also, the “enrichment in transgenic mice (MRT and fluorescence)” value in the data set with Aβ plaques [1] (transgenic APP23 mice, measurement period 90 minutes) is “a specific enrichment in the transgenic mice could be detected”.
For `CCN1CCOc2cc3c(cc21)Oc1cc2c(cc1=N3)OCC[N+]=2CC[18F]` [Example 3, [F-18]-8-Ethyl-4-(2-Fluoroethyl)-3,8,9,10-tetrahydro-2H-bis([1,4]-oxazino)[2,3-b:3′,2′-i]phenoxazin-4-ium chloride], the “binding to Aβ plaques (summary of OI examinations)” value in the data set with Aβ plaques [2] (in vivo, OI) is “selectively binds to Aβ plaques”. In addition, the “accumulation in control mice (OI signal)” value with Aβ plaques [2] (non-transgenic control mice, 0.1 mg/kg body weight i.v., signal at 650 nm, FIG. 1) is recorded as “no accumulation could be detected”. Further, the “accumulation in transgenic mice (OI signal)” value in the data set with Aβ plaques [2] (transgenic APPPS1 mice, 0.1 mg/kg body weight i.v., signal at 650 nm, FIG. 1 (age 12 months, 120 min after injection)) was “specifically accumulates in transgenic mice”. Further, in the data set on Aβ plaques [2] (transgenic APPPS1 mice, 0.1 mg/kg i.v., OI), the “enrichment as a function of the age of the transgenic mice” value is listed as “increases with the age of the transgenic mice”. For the same compound, the “enrichment in transgenic mice of an age of 2 months” value with Aβ plaques [2] (transgenic APPPS1 mice, age 2 months, 0.1 mg/kg i.v., OI, FIG. 2) was “no enrichment can be detected”. Also, in the data set on Aβ plaques [2] (transgenic APPPS1 mice, age 12 months, 0.1 mg/kg i.v., OI, FIG. 2), the “enrichment in transgenic mice at the age of 12 months” value is reported as “a significant enrichment can be seen”.
The compound `Oc1ccc2c(c1)N(CCBr)CCO2` [Example 13A, 4-(2-Bromoethyl)-3,4-dihydro-2H-benzo[b][1,4]oxazin-6-ol] returned a decomposition on storage in data set [3] of 50%.
